Data published in patent US4777182A, “6-Amidino-2-naphthyl 4-guanidinobenzoate derivatives and pharmaceutical composition containing them” (Torii & Co., Ltd., priority 1984, dated 1988).

Tests used:
[1] = molecular target: T1, Trypsin (Bos taurus, UniProt P00760); experiment: Anti-trypsin activity (inhibition of TAME hydrolysis); type: biochemical; conditions: read-out: ID50, Trypsin
T1 sequence (P00760 24-246): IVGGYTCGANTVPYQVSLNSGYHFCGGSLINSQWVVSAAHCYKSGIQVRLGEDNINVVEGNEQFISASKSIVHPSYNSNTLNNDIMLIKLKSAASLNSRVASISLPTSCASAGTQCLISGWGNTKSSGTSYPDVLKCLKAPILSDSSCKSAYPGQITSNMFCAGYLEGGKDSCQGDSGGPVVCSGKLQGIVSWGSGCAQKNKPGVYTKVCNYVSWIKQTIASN

[2] = molecular target: Plasmin (Homo sapiens, UniProt P00747); experiment: Anti-plasmin activity (inhibition of TAME hydrolysis); type: biochemical; conditions: TAME hydrolysis; read-out: ID50, Plasmin
[3] = test system: Kallikrein; experiment: Anti-kallikrein activity (inhibition of TAME hydrolysis); type: biochemical; conditions: read-out: ID50, Kallikrein
[4] = molecular target: Thrombin (Homo sapiens, UniProt P00734); experiment: biochemical; conditions: for IC50: TAME hydrolysis, read-out: ID50, Thrombin
[5] = molecular target: T2, C1r (Homo sapiens, UniProt P00736); experiment: Anti-C1r activity (inhibition of AAME hydrolysis); type: biochemical; conditions: for inhibition at 10 µM: at 1×10^-5 M, read-out: percent inhibition, C1r (figure in parentheses); for IC50: AAME hydrolysis, read-out: ID50, C1r
T2 sequence (P00736 18-463 limits assumed): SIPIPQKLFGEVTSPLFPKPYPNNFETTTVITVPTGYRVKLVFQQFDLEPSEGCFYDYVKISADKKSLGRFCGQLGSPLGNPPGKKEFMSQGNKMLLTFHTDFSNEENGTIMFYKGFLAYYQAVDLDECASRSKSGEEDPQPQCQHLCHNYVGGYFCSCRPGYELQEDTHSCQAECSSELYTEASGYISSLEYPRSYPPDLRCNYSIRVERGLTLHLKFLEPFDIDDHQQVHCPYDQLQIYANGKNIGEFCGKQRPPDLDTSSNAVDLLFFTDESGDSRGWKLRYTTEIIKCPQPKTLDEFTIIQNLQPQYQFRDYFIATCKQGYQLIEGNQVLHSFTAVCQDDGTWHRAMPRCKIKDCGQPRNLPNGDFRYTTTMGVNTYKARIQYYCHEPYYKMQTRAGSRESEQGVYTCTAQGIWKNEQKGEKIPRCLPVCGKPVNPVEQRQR
T2 sequence (P00736 464-705 limits assumed): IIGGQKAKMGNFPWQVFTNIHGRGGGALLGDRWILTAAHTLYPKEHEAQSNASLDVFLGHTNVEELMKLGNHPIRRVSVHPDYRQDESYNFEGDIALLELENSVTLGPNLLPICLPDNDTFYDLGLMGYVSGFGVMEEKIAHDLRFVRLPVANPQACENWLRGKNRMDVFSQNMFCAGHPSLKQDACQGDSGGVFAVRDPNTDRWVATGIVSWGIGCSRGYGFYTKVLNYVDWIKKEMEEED
Procedure: The anti-C1 esterase (C1r, C1s) activity was determined according to the method of Okamura et al. [K. Okamura, M. Muramatsu and B. Fujii, Biochem. Biophys. Acta, 295, 252-257 (1973)]. (2) The inhibition of complement mediated hemolysis was determined according to the method of Baker et al. [B. R. Baker and E. H. Erickson, J. Med. Chem., 12, 408-414 (1969)]. The figures in Table 2 have the following meanings: C1r: […]

[6] = molecular target: T3, C1s (Homo sapiens, UniProt P09871); experiment: Anti-C1s activity (inhibition of ATEE hydrolysis); type: biochemical; conditions: read-out: ID50, C1s
T3 sequence (P09871 16-437 limits assumed): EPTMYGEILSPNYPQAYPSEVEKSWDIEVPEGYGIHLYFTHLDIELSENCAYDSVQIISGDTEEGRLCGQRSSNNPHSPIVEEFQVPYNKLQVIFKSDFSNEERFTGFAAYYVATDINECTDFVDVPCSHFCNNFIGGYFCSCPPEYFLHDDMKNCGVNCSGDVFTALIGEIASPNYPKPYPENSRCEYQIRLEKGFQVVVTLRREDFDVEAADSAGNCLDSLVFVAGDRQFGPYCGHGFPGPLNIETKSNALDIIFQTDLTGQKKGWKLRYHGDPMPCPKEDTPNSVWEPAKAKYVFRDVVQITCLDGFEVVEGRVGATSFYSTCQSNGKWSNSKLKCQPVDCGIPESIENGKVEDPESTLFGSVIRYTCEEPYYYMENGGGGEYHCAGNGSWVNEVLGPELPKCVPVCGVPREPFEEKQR
T3 sequence (P09871 438-688 limits assumed): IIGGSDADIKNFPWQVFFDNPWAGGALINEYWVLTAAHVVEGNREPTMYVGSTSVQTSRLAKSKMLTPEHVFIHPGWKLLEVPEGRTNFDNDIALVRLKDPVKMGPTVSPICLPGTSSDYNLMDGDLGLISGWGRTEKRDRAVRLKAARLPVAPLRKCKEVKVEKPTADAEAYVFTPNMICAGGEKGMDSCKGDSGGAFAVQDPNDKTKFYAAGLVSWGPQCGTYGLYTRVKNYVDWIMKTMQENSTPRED
Procedure: The anti-C1 esterase (C1r, C1s) activity was determined according to the method of Okamura et al. [K. Okamura, M. Muramatsu and B. Fujii, Biochem. Biophys. Acta, 295, 252-257 (1973)]. (2) The inhibition of complement mediated hemolysis was determined according to the method of Baker et al. [B. R. Baker and E. H. Erickson, J. Med. Chem., 12, 408-414 (1969)]. The figures in Table 2 have the following meanings:
C1s: Molar concentration of the test compound which inhibits 50% of the ability of C1s to hydrolyse ATEE (acetyltyrosin ethyl ester) (ID50).

[7] = test system: complement mediated hemolysis; experiment: Inhibition of complement mediated hemolysis; type: cell-based
Text: Therefore, when a known amount of complement admixed with a C1 esterase inhibitor is used, the hemolysis must be suppressed in proportion to the inhibitory activity.

Sequence of Plasmin (P00747 97-580 limits assumed, species assumed): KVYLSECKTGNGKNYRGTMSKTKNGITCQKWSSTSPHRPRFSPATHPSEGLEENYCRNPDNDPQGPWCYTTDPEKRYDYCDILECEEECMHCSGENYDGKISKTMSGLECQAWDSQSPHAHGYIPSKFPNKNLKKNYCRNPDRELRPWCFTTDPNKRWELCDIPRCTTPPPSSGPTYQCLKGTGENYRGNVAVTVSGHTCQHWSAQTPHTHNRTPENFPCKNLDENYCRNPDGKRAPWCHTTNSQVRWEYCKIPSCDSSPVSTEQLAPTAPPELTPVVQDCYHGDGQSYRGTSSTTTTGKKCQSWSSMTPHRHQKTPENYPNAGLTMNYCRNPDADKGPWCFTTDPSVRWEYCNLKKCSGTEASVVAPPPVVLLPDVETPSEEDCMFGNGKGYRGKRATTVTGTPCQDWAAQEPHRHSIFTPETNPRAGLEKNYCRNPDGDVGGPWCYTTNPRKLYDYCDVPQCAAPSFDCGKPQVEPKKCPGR
Sequence of Plasmin (P00747 581-810 limits assumed, species assumed): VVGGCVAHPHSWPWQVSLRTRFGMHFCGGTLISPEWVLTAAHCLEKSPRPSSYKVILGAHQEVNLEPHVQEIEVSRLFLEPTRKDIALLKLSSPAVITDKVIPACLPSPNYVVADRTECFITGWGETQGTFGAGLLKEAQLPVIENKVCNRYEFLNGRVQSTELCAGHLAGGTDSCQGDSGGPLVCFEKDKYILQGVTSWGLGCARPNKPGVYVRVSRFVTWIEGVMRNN

SMILES	IC50 [1] [nM]	IC50 [2] [nM]	IC50 [3] [nM]	IC50 [4] [nM]	inhibition at 10 µM [5] [%]	IC50 [6] [nM]	Inhibition of complement mediated hemolysis (%) ([7]; 1 × 10^-5)	Inhibition of complement mediated hemolysis (%) ([7]; 1 × 10^-6)	Inhibition of complement mediated hemolysis (%) ([7]; 1 × 10^-7)	IC50 [5] [µM]	inhibition at 10 µM ([4]; at 1×10^-5 M, read-out: percentage inhibition, Thrombin (figure in parentheses)) [%]
CN1CCNC1=Nc1ccc(C(=O)Oc2ccc3cc(C(=N)N)ccc3c2)cc1 [compound 3]	300	1000	600	800	38	300	93	25	0		
CC1CNC(Nc2ccc(C(=O)Oc3ccc4cc(C(=N)N)ccc4c3)cc2)=N1 (stereo not shown) [compound 4]	3000	1000	400	2000		400	100	96	48	10	
N=C(N)c1ccc2cc(OC(=O)c3ccc(NC4=NCCCN4)cc3)ccc2c1 [compound 5]	6000	1000	500	2000	41	300	98	83	5		
N=C(N)c1ccc2cc(OC(=O)c3ccc(NC4=NC5CCCCC5N4)cc3)ccc2c1 (stereo not shown) [compound 6]	2000	3000	900	2000		400	100	100	75	9	
N=C(N)c1ccc2cc(OC(=O)c3ccc(Nc4ncc[nH]4)cc3)ccc2c1 [compound 7]	600	5000	4000	6000		300	96	46	4	3	
CNC(=N)Nc1ccc(C(=O)Oc2ccc3cc(C(=N)N)ccc3c2)cc1 [compound 8]	4000	3000	3000	60	47	2000	100	93	34		
CN(C)C(=N)Nc1ccc(C(=O)Oc2ccc3cc(C(=N)N)ccc3c2)cc1 [compound 9]	6000	2000	900	600	41	400	100	68	8		
CCNC(=N)Nc1ccc(C(=O)Oc2ccc3cc(C(=N)N)ccc3c2)cc1 [compound 10]	2000	5000	400	6000	48	800	100	86	20		
CCNC(=NC)Nc1ccc(C(=O)Oc2ccc3cc(C(=N)N)ccc3c2)cc1 [compound 11]					24	200	100	57	0		
CCN=C(NCC)Nc1ccc(C(=O)Oc2ccc3cc(C(=N)N)ccc3c2)cc1 [compound 12]					24	80	100	59	0		
CCCCNC(=N)Nc1ccc(C(=O)Oc2ccc3cc(C(=N)N)ccc3c2)cc1 [compound 13]	2000	500	900	1000	46	500	100	78	3		
N=C(NCCO)Nc1ccc(C(=O)Oc2ccc3cc(C(=N)N)ccc3c2)cc1 [compound 15]	2000	2000	1000	1000		900	96	52	6	5	
CC(=O)NCCNC(=N)Nc1ccc(C(=O)Oc2ccc3cc(C(=N)N)ccc3c2)cc1 [compound 16]	4000	900	3000		35	3000	100	89	25		49
N=C(NCCOCc1ccccc1)Nc1ccc(C(=O)Oc2ccc3cc(C(=N)N)ccc3c2)cc1 [compound 18]	2000	600	2000	5000	37	2000	100	100	46		
